Measurements published in patent CN1202821A, “用于从面颊释放药物的组合物和方法” (Theratech Inc, priority 1995, dated 1998).
Values joined by “and” are separate entries in the source; they are usually repeats but may differ in a detail not shown here. Equal values may be shown once.

Tests used:
[1] = Dog buccal mucosa model: insulin bilayer tablet, blood glucose; assay type: in vivo; conditions: mean of 4 dogs, 1 buccal tablet of 0.375 inch, 5 U/kg
[2] = buccal, dose 119 nmol
[3] = Double-blind, placebo-controlled crossover study of buccal GLP-1(7-36) amide bilayer tablet: blood glucose, plasma insulin, plasma glucagon; assay type: in vivo, human; conditions: 400 μg buccal bilayer tablet, healthy volunteers
[4] = Buccal delivery of salmon calcitonin from bilayer tablets in dogs (Table 3); assay type: in vivo, dog; conditions: individual dogs, 2 tablets

With “胰岛素: human insulin in the buccal bilayer tablet of Example 6” the “control of blood glucose concentration by buccal delivery” value [1] was “有效的”.
With `CC[C@H](C)[C@H](NC(=O)[C@H](Cc1ccccc1)NC(=O)[C@H](CCC(=O)O)NC(=O)[C@H](CCCCN)NC(=O)[C@H](C)NC(=O)[C@H](C)NC(=O)[C@H](CCC(N)=O)NC(=O)CNC(=O)[C@H](CCC(=O)O)NC(=O)[C@H](CC(C)C)NC(=O)[C@H](Cc1ccc(O)cc1)NC(=O)[C@H](CO)NC(=O)[C@H](CO)NC(=O)[C@@H](NC(=O)[C@H](CC(=O)O)NC(=O)[C@H](CO)NC(=O)[C@@H](NC(=O)[C@H](Cc1ccccc1)NC(=O)[C@@H](NC(=O)CNC(=O)[C@H](CCC(=O)O)NC(=O)[C@H](C)NC(=O)[C@@H](N)Cc1c[nH]cn1)[C@@H](C)O)[C@@H](C)O)C(C)C)C(=O)N[C@@H](C)C(=O)N[C@@H](Cc1c[nH]c2ccccc12)C(=O)N[C@@H](CC(C)C)C(=O)N[C@H](C(=O)N[C@@H](CCCCN)C(=O)NCC(=O)N[C@@H](CCCNC(=N)N)C(N)=O)C(C)C` [GLP-1(7-36)酰胺] the “生物利用度 (bioavailability)” value ([2]; individual subjects 901-907, listed as GLP-1(η-36)酰胺) was 8.04 % and 6.40 % and 10.01 %, the “生物利用度 (bioavailability), mean” value ([2]; mean (平均) of subjects) was 7.08 % and the hypoglycaemia [3] was “没有导致低血糖症”.
For `CC(C)C[C@H](NC(=O)[C@H](CCCCN)NC(=O)CNC(=O)[C@H](CC(C)C)NC(=O)[C@@H](NC(=O)[C@@H]1CSSC[C@H](N)C(=O)N[C@@H](CO)C(=O)N[C@@H](CC(N)=O)C(=O)N[C@@H](CC(C)C)C(=O)N[C@@H](CO)C(=O)N[C@@H]([C@@H](C)O)C(=O)N1)C(C)C)C(=O)N[C@@H](CO)C(=O)N[C@@H](CCC(N)=O)C(=O)N[C@@H](CCC(=O)O)C(=O)N[C@@H](CC(C)C)C(=O)N[C@@H](Cc1c[nH]cn1)C(=O)N[C@@H](CCCCN)C(=O)N[C@@H](CC(C)C)C(=O)N[C@@H](CCC(N)=O)C(=O)N[C@H](C(=O)N[C@@H](Cc1ccc(O)cc1)C(=O)N1CCC[C@H]1C(=O)N[C@@H](CCCNC(=N)N)C(=O)N[C@H](C(=O)N[C@@H](CC(N)=O)C(=O)N[C@H](C(=O)NCC(=O)N[C@@H](CO)C(=O)NCC(=O)N[C@H](C(=O)N1CCC[C@H]1C(N)=O)[C@@H](C)O)[C@@H](C)O)[C@@H](C)O)[C@@H](C)O` [鲑鱼降钙素], the “ng吸收 (ng absorbed)” value ([4]; 0.71 cm2) was 6,535 ng and 23,379 ng and the “ng吸收 (ng absorbed)” value ([4]; 1.27 cm2) was 72,958 ng and 16,461 ng and 20,989 ng and 17,614 ng.
